Results reported in PMC6969166, “The molecular basis of pyrazinamide activity on Mycobacterium tuberculosis PanD” (Nature Communications, 2020).
Several values for one entry are separate records, joined by “and”; a condition that tells them apart may be missing. Equal values may be shown once. Entries after “also recorded” stand apart in the source; their conditions may differ. Read-outs that look alike come from different tables or passages of the source.

Columns and labels:
Mtb PanD [1] = biological target: T1, Mtb PanD (Mycobacterium tuberculosis, UniProt P9WIL3); test: biochemical; format: biochemical; settings: for remaining activity at 312.5 µM / remaining activity at 625 µM / remaining activity at 1250 µM / remaining activity at 2500 µM / remaining activity at 5000 µM / remaining activity at 10000 µM / remaining activity at 20000 µM: read-out: Fractional Activity
T1 construct: The active protein consists of a β chain (Met1-Gly24) and an α chain (Pyr25 to ILE115); we observed the processed active enzyme after cleavage between Gly24 and Ser25; inferred from the pET21c(+) vector and HisTrap purification); made in house; host or cells: Escherichia coli BL21(DE3)
T1 sequence (P9WIL3 1-24): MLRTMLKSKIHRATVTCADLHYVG
T1 sequence (P9WIL3 25-139): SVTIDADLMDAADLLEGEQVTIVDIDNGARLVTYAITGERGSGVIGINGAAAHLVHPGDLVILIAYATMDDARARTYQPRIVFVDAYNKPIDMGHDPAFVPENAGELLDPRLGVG

Mtb PanD [2] = biological target: T1, Mtb PanD; test: Isothermal titration calorimetry, wild type; format: binding; settings: for ΔH / ΔS: mean
Description: ITC experiments were performed using a MicroCal iTC200 (GE). Both protein and ligands were in a buffer of 100 mM Tris, pH 7.5. The protein concentration in the cell was 0.5 mM, and the ligand concentration was 20 mM. The titration was performed at 20 °C. The data were analyzed with the Origin 7.0 software and fitted with a single-site binding model.

Mtb cultures = settings: cited from earlier work
PanD = system: PanD; set-up: method as in PMID 23029336; settings: cited from earlier work

Compound	inhibition of Mtb PanD (Mtb PanD [1])	remaining activity at 312.5 µM (Mtb PanD [1]; compound conc 0.3125 mM) [%]	remaining activity at 625 µM (Mtb PanD [1]; compound conc 0.625 mM) [%]	remaining activity at 1250 µM (Mtb PanD [1]; compound conc 1.25 mM) [%]	remaining activity at 2500 µM (Mtb PanD [1]; compound conc 2.5 mM) [%]	remaining activity at 5000 µM (Mtb PanD [1]; compound conc 5 mM) [%]	remaining activity at 10000 µM (Mtb PanD [1]; compound conc 10 mM) [%]	remaining activity at 20000 µM (Mtb PanD [1]; compound conc 20 mM) [%]	other results
O=C(O)c1cnc(Cl)cn1 [5-Cl-POA]	no inhibition	92.8	89.8	80.2	67.7	52.9	51.6	44.3	
O=C(O)c1cncc(Cl)n1 [6-Cl-POA, 6-chloropyrazinoic acid]	inhibitor of PanD	81.8	69.3	51.7	35	22.9	19.8	8.91	Kd (Mtb PanD [2]; ITC, 20 °C, 100 mM Tris pH 7.5, single-site model, mean of separate experiments): 1090 µM; ΔH (Mtb PanD [2]; ITC, 20 °C, 100 mM Tris pH 7.5): −3300 (100) cal mol^−1; ΔS (Mtb PanD [2]; ITC, 20 °C, 100 mM Tris pH 7.5): 2.2 (0.5) cal mol^−1 deg^−1; Kd (Mtb PanD [2]; ITC, wt, single experiments): 1090 µM and 1140 µM and 1050 µM; ΔS (cal/mol /deg) (Mtb PanD [2]; ITC, wt, single experiments): 2.27 cal/mol /deg and 1.7 cal/mol /deg and 2.71 cal/mol /deg; Ki (Mtb PanD [1]): 1000 µM; mode of inhibition (Mtb PanD [1]): competitive
O=C(O)c1cccnc1 [NA, nicotinic acid]	lack of inhibitory activity; also recorded: None of these compounds inhibited								binding in ITC (Mtb PanD [2]; 100 mM Tris pH 7.5): no binding; remaining activity at 312.5 µM (Mtb PanD [1]): 101%; remaining activity at 625 µM (Mtb PanD [1]): 98.1%; remaining activity at 1250 µM (Mtb PanD [1]): 96.6%; remaining activity at 2500 µM (Mtb PanD [1]): 90.2%; remaining activity at 5000 µM (Mtb PanD [1]): 87.2%; remaining activity at 10000 µM (Mtb PanD [1]): 82.2%; remaining activity at 20000 µM (Mtb PanD [1]): 61.4%
O=C(O)c1cnccn1 [POA, pyrazinoic acid]		81.2	66.4	52.9	34.8	21.6	13.4	7.44	ΔH (Mtb PanD [2]; ITC, 20 °C, 100 mM Tris pH 7.5): -4200 (200) cal mol^−1; ΔS (Mtb PanD [2]; ITC, 20 °C, 100 mM Tris pH 7.5): 0.1 (0.7) cal mol^−1 deg^−1; mode of inhibition (Mtb PanD [1]): competitive with aspartate
NC(=O)c1cnccn1 [PZA, pyrazinamide]	lack of inhibitory activity; also recorded: None of these compounds inhibited	104	105	101	104	101	98.7	91.5	minimal inhibitory concentration (Mtb cultures; mildly acidic (<pH6), ref 2 (peer review file list)): 0.4-1.6 mM and 50 – 200 µg/ml; minimum inhibitory concentrations (Mtb cultures; mildly acidic pH): 400 to 1600 µM; activity against Mtb cultures (Mtb cultures; normal media): not active
N[C@@H](CC(=O)O)C(=O)O [aspartate, L-aspartate]									Km (Mtb PanD [1]): 1080 µM
O=C(O)C(O)C(O)C(=O)O (stereo not shown) [tartrate]									inhibitor of the enzyme (PanD): known inhibitor
